This is an account of results in BindingDB's records for PubMed 9686407 (Sri International, 1998).

Experiment [1] concerns the target T1, 5-hydroxytryptamine receptor 1A (Homo sapiens, UniProt P08908).
T1 sequence (P08908 whole entry): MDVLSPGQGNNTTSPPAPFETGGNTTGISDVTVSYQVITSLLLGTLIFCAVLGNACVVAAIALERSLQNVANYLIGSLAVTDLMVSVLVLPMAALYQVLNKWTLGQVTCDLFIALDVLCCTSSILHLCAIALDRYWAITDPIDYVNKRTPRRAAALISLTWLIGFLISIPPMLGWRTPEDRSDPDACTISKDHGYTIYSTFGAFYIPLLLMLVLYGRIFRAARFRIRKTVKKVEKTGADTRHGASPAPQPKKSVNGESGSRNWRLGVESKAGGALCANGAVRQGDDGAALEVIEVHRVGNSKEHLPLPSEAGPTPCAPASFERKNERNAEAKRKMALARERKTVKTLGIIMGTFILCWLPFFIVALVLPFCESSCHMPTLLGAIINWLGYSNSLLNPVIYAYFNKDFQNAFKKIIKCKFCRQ

Experiment [2] concerns the target 5-hydroxytryptamine receptor 2A (Rattus norvegicus, UniProt P14842).
Experiment [3] deals with T2, 5-hydroxytryptamine receptor 3A (Mus musculus, UniProt P23979).
T2 sequence (P23979 whole entry): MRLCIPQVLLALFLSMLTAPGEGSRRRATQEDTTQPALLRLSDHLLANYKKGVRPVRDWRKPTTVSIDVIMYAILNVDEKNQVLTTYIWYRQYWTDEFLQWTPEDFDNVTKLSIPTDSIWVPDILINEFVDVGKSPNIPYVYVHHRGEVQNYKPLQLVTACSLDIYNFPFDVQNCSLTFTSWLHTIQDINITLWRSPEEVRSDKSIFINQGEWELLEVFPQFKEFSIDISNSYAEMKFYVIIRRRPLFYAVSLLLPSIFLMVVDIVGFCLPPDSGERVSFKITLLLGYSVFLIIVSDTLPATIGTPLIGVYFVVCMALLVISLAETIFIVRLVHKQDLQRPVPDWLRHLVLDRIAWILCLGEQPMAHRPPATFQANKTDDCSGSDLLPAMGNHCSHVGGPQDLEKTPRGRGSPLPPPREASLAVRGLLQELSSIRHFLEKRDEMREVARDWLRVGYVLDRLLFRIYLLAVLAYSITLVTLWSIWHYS

The target of another experiment is D(1A) dopamine receptor (Homo sapiens, UniProt P21728).
Experiment [4] concerns the target T3, 5-hydroxytryptamine receptor 2C (Rattus norvegicus, UniProt P08909).
T3 sequence (P08909 whole entry): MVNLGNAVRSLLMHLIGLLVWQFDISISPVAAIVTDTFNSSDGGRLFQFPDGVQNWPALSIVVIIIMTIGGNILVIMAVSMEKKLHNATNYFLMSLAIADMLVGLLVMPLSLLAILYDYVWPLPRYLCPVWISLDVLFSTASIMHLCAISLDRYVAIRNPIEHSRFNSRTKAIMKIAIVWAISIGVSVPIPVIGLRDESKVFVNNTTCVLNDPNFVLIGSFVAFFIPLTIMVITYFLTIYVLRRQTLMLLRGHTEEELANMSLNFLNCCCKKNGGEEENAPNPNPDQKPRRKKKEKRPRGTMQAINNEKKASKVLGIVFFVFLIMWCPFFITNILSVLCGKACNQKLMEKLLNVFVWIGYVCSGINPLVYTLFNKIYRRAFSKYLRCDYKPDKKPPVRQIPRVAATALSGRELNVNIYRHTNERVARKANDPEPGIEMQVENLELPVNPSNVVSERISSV

Another experiment concerns the target Mu-type opioid receptor (Cavia porcellus, UniProt P97266).
In experiment [5] the target is Kappa-type opioid receptor (Cavia porcellus, UniProt P41144).

Molecules are shown by their SMILES.

D(1A) dopamine receptor, sequence (P21728 whole entry): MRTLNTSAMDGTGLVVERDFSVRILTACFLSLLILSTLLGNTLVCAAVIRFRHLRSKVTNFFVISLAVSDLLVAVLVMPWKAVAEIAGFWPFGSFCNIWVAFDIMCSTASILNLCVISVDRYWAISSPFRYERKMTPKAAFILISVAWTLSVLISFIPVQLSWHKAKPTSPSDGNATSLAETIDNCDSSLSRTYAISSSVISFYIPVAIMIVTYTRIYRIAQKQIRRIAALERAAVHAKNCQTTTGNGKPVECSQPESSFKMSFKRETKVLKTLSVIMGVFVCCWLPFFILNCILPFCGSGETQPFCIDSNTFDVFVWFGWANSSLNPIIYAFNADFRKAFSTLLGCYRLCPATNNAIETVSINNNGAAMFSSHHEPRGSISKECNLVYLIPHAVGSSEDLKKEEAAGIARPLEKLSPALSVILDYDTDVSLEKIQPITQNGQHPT
5-hydroxytryptamine receptor 2A, sequence (P14842 whole entry): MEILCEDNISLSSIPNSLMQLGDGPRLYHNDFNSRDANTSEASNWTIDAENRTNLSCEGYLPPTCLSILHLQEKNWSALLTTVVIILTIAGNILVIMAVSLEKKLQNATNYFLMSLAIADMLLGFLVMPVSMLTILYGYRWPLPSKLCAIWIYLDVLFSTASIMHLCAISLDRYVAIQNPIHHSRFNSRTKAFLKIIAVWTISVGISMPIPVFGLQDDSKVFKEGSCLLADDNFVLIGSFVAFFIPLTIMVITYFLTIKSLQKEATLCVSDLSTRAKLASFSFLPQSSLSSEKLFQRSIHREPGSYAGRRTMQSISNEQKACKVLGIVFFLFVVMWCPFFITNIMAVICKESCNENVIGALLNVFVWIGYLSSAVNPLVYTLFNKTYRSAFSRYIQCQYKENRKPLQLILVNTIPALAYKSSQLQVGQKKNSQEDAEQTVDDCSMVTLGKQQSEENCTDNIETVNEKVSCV
Mu-type opioid receptor, sequence (P97266 whole entry): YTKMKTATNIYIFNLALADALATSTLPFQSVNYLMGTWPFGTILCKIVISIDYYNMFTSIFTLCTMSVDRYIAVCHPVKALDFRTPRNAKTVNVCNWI
Kappa-type opioid receptor, sequence (P41144 whole entry): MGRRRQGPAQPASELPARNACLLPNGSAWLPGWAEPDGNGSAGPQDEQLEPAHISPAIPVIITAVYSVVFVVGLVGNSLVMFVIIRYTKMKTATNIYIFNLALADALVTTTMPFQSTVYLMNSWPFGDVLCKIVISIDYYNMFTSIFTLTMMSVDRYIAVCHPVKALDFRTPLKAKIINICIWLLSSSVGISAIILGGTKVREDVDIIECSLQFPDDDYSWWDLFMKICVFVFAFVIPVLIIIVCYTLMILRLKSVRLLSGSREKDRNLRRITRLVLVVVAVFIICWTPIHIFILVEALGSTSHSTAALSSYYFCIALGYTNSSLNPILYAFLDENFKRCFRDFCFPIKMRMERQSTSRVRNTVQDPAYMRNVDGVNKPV

In general, Ki refers to a measure of affinity in units of concentration, obtained from inhibition or displacement. As for `CN1C2CCC1CC(OC(=O)c1c[nH]c3ccccc13)C2` (stereo not given), the Ki is over 10 µM in experiment [1]; 5.61 µM in experiment [2]; 0.0005 µM in experiment [3]; over 10 µM on D(1A) dopamine receptor; over 10 µM in experiment [4].
With `CCC12CCN(CC3(O)CC3)C(Cc3ccc(O)cc31)C2(C)C` (stereo not given), the affinity on Mu-type opioid receptor corresponds to a Ki of 0.0001 µM. This lies in the sub-nanomolar range.
`c1ccc2c(c1)OCC(C1=NCCN1)O2` (stereo not given): the Ki in experiment [1] is 0.662 µM; in experiment [2], over 10 µM; in experiment [3], over 10 µM; on D(1A) dopamine receptor it was over 10 µM; in experiment [4], over 10 µM.
Take `COC(=O)[C@@H](c1ccccc1)[C@@H]1CCCCN1`: the Ki (in experiment [1]; in experiment [2]; in experiment [3]; on D(1A) dopamine receptor; in experiment [4]) was over 10 µM throughout.
Compound `CC[C@H](C)[C@H](NC(=O)[C@H](CCCN=C(N)N)NC(=O)[C@H](CCCN=C(N)N)NC(=O)[C@H](CC(C)C)NC(=O)[C@H](Cc1ccccc1)NC(=O)CNC(=O)CNC(=O)[C@@H](N)Cc1ccc(O)cc1)C(=O)O` showed a Ki in experiment [5] of 0.0014 µM.
`C=CCN1CCC23c4c5ccc(O)c4O[C@@H]2C(=NNC(=O)c2ccccc2)CCC3(O)C1C5` (stereo not given in full): the Ki in experiment [5] was found to be 0.0004 µM; on Mu-type opioid receptor, 0.0002 µM.
For `CCc1cc(Cl)c(OC)c(C(=O)NC[C@@H]2CCCN2CC)c1O` [3-Chloro-5-ethyl-N-((S)-1-ethyl-pyrrolidin-2-ylmethyl)-6-hydroxy-2-methoxy-benzamide], the Ki was 1.79 µM in experiment [1]; 0.705 µM in experiment [2]; over 10 µM in experiment [3]; over 10 µM on D(1A) dopamine receptor; over 10 µM in experiment [4].
As to `NC(=O)N1c2ccccc2C=Cc2ccccc21` [5H-dibenzo[b,f]azepine-5-carboxamide], the Ki (in experiment [1]; in experiment [2]; in experiment [3]; at D(1A) dopamine receptor; in experiment [4]) was over 10 µM throughout.
For the compound `CN1CC(C(=O)N[C@]2(C)O[C@@]3(O)C4CCCN4C(=O)[C@H](Cc4ccccc4)N3C2=O)CC2c3cccc4[nH]cc(c34)CC21` (stereo partly drawn) [7-Methyl-4,6,6a,7,8,9,10,10a-octahydro-indolo[4,3-fg]quinoline-9-carboxylic acid ((2R,5S,10bS)-5-benzyl-10b-hydroxy-2-methyl-3,6-dioxo-octahydro-oxazolo[3,2-a]pyrrolo[2,1-c]pyrazin-2-yl)-amide], the Ki in experiment [1] was 0.0015 µM; in experiment [2] it was 0.038 µM; in experiment [3], over 10 µM; on D(1A) dopamine receptor, 2.78 µM; in experiment [4], 0.298 µM.
With `C[C@@H]1[C@@H]2Cc3ccc(O)cc3[C@@]1(C)CCN2CC1CC1` [(SSS)-12-Cyclopropylmethyl-13-methyl-12-aza-tricyclo[9.1.1.0*3,8*]trideca-3(8),4,6-trien-6-ol(cyclazocine)], the inhibition constant Ki in experiment [5] came to 0.0001 µM. In other words, the sub-nanomolar range.
Take `COC(=O)[C@H]1[C@H]2C[C@@H]3c4[nH]c5cc(OC)ccc5c4CCN3C[C@H]2C[C@@H](OC(=O)c2cc(OC)c(OC)c(OC)c2)[C@@H]1OC` [Apoplon]: the Ki in experiment [1] was 1.83 µM; in experiment [2], 3.06 µM; in experiment [3], over 10 µM; at D(1A) dopamine receptor it was 3.85 µM; in experiment [4], 3.1 µM.
In the case of `CC(C)C[C@H]1C(=O)N2CCC[C@H]2[C@]2(O)O[C@](NC(=O)[C@@H]3C=C4c5cccc6[nH]c(Br)c(c56)C[C@H]4N(C)C3)(C(C)C)C(=O)N12` [Bromocriptine+ (GTP+)], the Ki in experiment [1] is 0.025 µM; in experiment [2], 0.117 µM; in experiment [3] it was over 10 µM; on D(1A) dopamine receptor it was 2.07 µM; in experiment [4] it was 4.67 µM.
Turning to `Oc1ccc2c3c1O[C@H]1c4[nH]c5c(c4C[C@@]4(O)[C@@H](C2)N(CC2CC2)CC[C@]314)C[C@@]1(O)[C@H]2Cc3ccc(O)c4c3[C@@]1(CCN2CC1CC1)[C@H]5O4` [C18130], the affinity on Mu-type opioid receptor corresponds to a Ki of 0.0083 µM. This lies in the single-digit nanomolar range.
For `CCCN1CCCC(c2cccc(O)c2)C1` (stereo not given) [CAS_85976-54-1], the Ki is 4.17 µM in experiment [1]; 5.99 µM in experiment [2]; over 10 µM in experiment [3]; over 10 µM at D(1A) dopamine receptor; over 10 µM in experiment [4].
For `CN1CCN(c2nc3cc(C(F)(F)F)ccc3n3cccc23)CC1` [CAS_109028-10-6], the Ki in experiment [1] is 0.044 µM; in experiment [2] it was 3.13 µM; in experiment [3], over 10 µM; on D(1A) dopamine receptor it was 1.53 µM; in experiment [4], 6.6 µM.
Consider `COC(=O)[C@H]1[C@@H](OC(=O)c2ccccc2)C[C@@H]2CC[C@H]1N2C` [Cocaine (-)], for which the inhibition constant (Ki) (in experiment [1]; in experiment [2]; in experiment [3]; at D(1A) dopamine receptor; in experiment [4]) was over 10 µM in each case.
Compound `CN1CC[C@]23c4c5ccc(O)c4O[C@H]2[C@@H](O)CCC3[C@H]1C5` (stereo not given in full) [DIHYDROMORPHINE] had a Ki on Mu-type opioid receptor of 0.0008 µM.
Consider `CC[C@H](C)[C@H](NC(=O)[C@H](CCCNC(=N)N)NC(=O)[C@H](CCCNC(=N)N)NC(=O)[C@H](CC(C)C)NC(=O)[C@H](Cc1ccccc1)NC(=O)CNC(=O)CNC(=O)[C@@H](N)Cc1ccc(O)cc1)C(=O)N[C@@H](CCCNC(=N)N)C(=O)N1CCC[C@H]1C(=O)N[C@@H](CCCCN)C(=O)N[C@@H](CC(C)C)C(=O)N[C@@H](CCCCN)C(=O)O` [Dynorphin A (1-13)], for which the Ki on Mu-type opioid receptor was determined as 0.0033 µM.
On the same count and under the same terms, then `CC(C)C[C@H](NC(=O)[C@H](Cc1ccccc1)NC(=O)CNC(=O)CNC(=O)[C@@H](N)Cc1ccc(O)cc1)C(=O)N[C@@H](CCCN=C(N)N)C(=O)N[C@@H](CCCN=C(N)N)C(=O)N[C@@H](CCC(N)=O)C(=O)N[C@@H](Cc1ccccc1)C(=O)N[C@@H](CCCCN)C(=O)N[C@H](C(=O)N[C@H](C(=O)N[C@H](C(=O)O)[C@@H](C)O)C(C)C)C(C)C` [Dynorphin B (1-13)], with 0.0055 µM; and `CC[C@@]12CCN(CC3CC3)C(C(=O)c3ccc(O)cc31)[C@@H]2C` [EKC], with 0.0004 µM.
Regarding `CC[C@@H]1CC2C[C@@H]3c4[nH]c5ccc(OC)cc5c4CCN(C2)C13` [IBOGAINE], the Ki (in experiment [1]; in experiment [2]; in experiment [3]; at D(1A) dopamine receptor; in experiment [4]) was over 10 µM throughout.
For `CN1C2CCC1CC(OC(=O)c1cc(Cl)cc(Cl)c1)C2` (stereo not given) [MDL 72222], the Ki in experiment [1] was over 10 µM; in experiment [2], 2.85 µM; in experiment [3], 0.014 µM; at D(1A) dopamine receptor it was over 10 µM; in experiment [4], over 10 µM.
For the compound `CN[C@@H](C)Cc1ccc2c(c1)OCO2` [MDMA, R(-)], the Ki is over 10 µM in experiment [1], 3.91 µM in experiment [2], over 10 µM in experiment [3] and over 10 µM on D(1A) dopamine receptor.
With `CN[C@@H](C)Cc1ccccc1` [METHAMPHETAMINE (+)], the Ki (in experiment [1]; in experiment [2]; in experiment [3]; at D(1A) dopamine receptor; in experiment [4]) was over 10 µM each time.
In experiment [5], `CC(C)[C@H](NC(=O)[C@H](CCC(=O)O)NC(=O)[C@H](Cc1ccccc1)NC(=O)[C@@H](C)NC(=O)[C@@H](N)Cc1ccc(O)cc1)C(=O)N[C@H](C(=O)NCC(N)=O)C(C)C` [Tyr-D-Ala-Phe-Glu-Val-Val-GlyNH2] had a Ki of over 10 µM.
On to `C#CCN(C)[C@H](C)Cc1ccccc1` [US8633208, Deprenyl], for which the Ki in experiment [1] is over 10 µM; in experiment [2], 5.64 µM; in experiment [3], over 10 µM; on D(1A) dopamine receptor, over 10 µM; in experiment [4] it was over 10 µM.
Turning to `Fc1ccc(C(OCCN2CCN(CCCc3ccccc3)CC2)c2ccc(F)cc2)cc1` [Vanoxerine], the Ki in experiment [1] was 4.68 µM; in experiment [2], 0.161 µM; in experiment [3], over 10 µM; at D(1A) dopamine receptor, over 10 µM; in experiment [4], over 10 µM.
